Measurements published in article PMC10746543, “Design principles for cyclin K molecular glue degraders” (Nature Chemical Biology, 2023).
Values joined by “and” are separate entries in the source; they are usually repeats but may differ in a detail not shown here. Identical values can stand only once. Like-named read-outs stand apart in the source and are kept apart here. Blank lines part the entries; values can stand above or below the molecule they belong to.

Legend:
[1] = target: T1, CDK12–cyclin K and DDB1 (Homo sapiens, UniProt Q16531+Q9NYV4, K965R); assay: TR-FRET ternary complex formation assay (compound titration); type: binding; conditions: raw replicate titration data
T1 construct: His6–CDK12 (a.a. 713–1,052); full-length or beta-propeller B domain deletion (ΔBPB: a.a. 396–705 deleted) constructs of His6–DDB1ΔBPB, StrepII–Avi–DDB1, or His6–Spy–DDB1; made in house; host or cells: Trichoplusia ni High Five insect cells (baculovirus)
How it was run: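 TR-FRET ratio 520/490 nm; 70 μs delay before read to suppress background.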

[2] = test system: HEK293T cells; assay: Drug sensitivity assay (CellTiter-Glo viability) with or without MLN4924 pretreatment; type: cell-based, human; conditions: for Toxicity rescue: MLN4924-mediated cytotoxicity rescue, 10 µM used where n.d.
How it was run: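 Luminescent ATP read-out (CellTiter-Glo) after 3 days of drug exposure, normalised to DMSO controls. Cells were HEK293T–Cas9, pretreated with 100 nM MLN4924 or DMSO for 2 h before drug dispensing.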

[3] = test system: cyclin K–eGFP degradation reporter; assay: Cyclin K reporter stability analysis (dual-color cyclin K–eGFP reporter); type: cell-based, human
How it was run: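 HEK293T–Cas9 cells carrying the cyclin K–eGFP reporter were seeded at 1 × 10^6 ml^−1 and exposed to drug or DMSO for 5 h. Flow cytometry gave geometric means of eGFP and mCherry in round, mCherry-positive cells. The eGFP/mCherry ratio was normalized to the mean of three DMSO controls.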

T1 sequence (Q9NYV4 713-1052 K965R): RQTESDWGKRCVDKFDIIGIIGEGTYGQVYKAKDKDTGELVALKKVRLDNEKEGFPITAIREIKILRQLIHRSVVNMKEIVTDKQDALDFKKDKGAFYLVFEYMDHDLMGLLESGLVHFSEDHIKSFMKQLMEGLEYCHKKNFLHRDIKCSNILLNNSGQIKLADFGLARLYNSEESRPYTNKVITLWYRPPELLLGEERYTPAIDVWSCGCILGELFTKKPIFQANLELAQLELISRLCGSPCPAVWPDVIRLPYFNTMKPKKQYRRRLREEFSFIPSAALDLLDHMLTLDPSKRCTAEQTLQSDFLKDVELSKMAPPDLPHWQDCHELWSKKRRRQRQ
T1 sequence (O75909 1-267 partner): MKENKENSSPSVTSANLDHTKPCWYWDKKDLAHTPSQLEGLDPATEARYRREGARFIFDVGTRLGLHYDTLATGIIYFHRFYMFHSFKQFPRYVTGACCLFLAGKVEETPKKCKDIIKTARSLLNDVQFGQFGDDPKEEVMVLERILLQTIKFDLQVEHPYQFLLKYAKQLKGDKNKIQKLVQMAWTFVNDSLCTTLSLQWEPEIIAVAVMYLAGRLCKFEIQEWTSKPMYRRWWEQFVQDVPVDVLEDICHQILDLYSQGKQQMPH
T1 sequence (Q16531 whole entry): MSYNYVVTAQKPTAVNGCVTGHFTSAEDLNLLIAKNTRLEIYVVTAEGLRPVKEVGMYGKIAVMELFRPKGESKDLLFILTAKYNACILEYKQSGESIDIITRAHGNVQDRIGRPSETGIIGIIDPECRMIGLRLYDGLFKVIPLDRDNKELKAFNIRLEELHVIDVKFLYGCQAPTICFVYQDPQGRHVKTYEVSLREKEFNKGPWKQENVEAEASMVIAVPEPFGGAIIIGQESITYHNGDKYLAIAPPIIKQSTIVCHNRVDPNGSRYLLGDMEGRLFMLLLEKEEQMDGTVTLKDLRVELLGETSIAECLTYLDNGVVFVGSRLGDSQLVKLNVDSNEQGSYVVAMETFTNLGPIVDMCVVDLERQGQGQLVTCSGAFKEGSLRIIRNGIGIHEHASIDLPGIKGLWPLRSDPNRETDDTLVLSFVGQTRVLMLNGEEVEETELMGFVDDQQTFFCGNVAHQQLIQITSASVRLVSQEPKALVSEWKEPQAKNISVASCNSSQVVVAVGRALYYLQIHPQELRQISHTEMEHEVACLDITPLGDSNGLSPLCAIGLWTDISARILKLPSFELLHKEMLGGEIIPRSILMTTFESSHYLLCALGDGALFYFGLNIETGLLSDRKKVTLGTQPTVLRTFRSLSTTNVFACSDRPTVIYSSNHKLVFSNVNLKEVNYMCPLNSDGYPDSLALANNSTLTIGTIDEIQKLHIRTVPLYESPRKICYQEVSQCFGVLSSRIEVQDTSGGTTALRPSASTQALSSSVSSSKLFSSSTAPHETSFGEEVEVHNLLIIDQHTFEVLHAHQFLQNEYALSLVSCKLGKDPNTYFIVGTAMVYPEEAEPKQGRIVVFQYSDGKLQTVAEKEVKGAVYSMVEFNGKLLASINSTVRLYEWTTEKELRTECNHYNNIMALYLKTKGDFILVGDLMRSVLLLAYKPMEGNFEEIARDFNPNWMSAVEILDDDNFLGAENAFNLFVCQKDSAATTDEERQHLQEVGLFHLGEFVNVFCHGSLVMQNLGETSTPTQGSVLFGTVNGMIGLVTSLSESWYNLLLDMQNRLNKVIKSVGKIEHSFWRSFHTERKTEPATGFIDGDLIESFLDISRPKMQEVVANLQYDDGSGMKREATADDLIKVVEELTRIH

TR-FRET signal at compound concentration 0.468 nM ([1]; compound concentration 0.468 nM): 0.1026 and 0.1033
TR-FRET signal at compound concentration 2.16 nM ([1]; compound concentration 2.16 nM): 0.1211 and 0.1202
TR-FRET signal at compound concentration 3.6 nM ([1]; compound concentration 3.6 nM): 0.158 and 0.1569
TR-FRET signal at compound concentration 4.68 nM [1]: 0.141 and 0.164
TR-FRET signal at compound concentration 7.92001 nM ([1]; compound concentration 7.92001 nM): 0.229 and 0.2182
TR-FRET signal at compound concentration 15.84 nM ([1]; compound concentration 15.84 nM): 0.3288 and 0.3136
TR-FRET signal at compound concentration 21.6 nM [1]: 0.2804 and 0.3137
TR-FRET signal at compound concentration 30.96 nM ([1]; compound concentration 30.96 nM): 0.3522 and 0.3143
TR-FRET signal at compound concentration 36 nM [1]: 0.3155 and 0.3474
TR-FRET signal at compound concentration 62.6401 nM ([1]; compound concentration 62.6401 nM): 0.2879 and 0.2897
TR-FRET signal at compound concentration 79.2001 nM [1]: 0.2612 and 0.2943
TR-FRET signal at compound concentration 125.28 nM ([1]; compound concentration 125.28 nM): 0.2755 and 0.2904
TR-FRET signal at compound concentration 158.4 nM [1]: 0.2643 and 0.2881
TR-FRET signal at compound concentration 244.8 nM ([1]; compound concentration 244.8 nM): 0.2809 and 0.2743
TR-FRET signal at compound concentration 309.6 nM [1]: 0.2462 and 0.2819
TR-FRET signal at compound concentration 626.401 nM [1]: 0.2417 and 0.2805
TR-FRET signal at compound concentration 993.601 nM ([1]; compound concentration 993.601 nM): 0.2627 and 0.2615
TR-FRET signal at compound concentration 1252.8 nM [1]: 0.2431 and 0.2774
TR-FRET signal at compound concentration 2001.6 nM ([1]; compound concentration 2001.6 nM): 0.2535 and 0.232
TR-FRET signal at compound concentration 2448 nM [1]: 0.2678 and 0.2721
TR-FRET signal at compound concentration 9936.01 nM [1]: 0.2509 and 0.2771
TR-FRET signal at compound concentration 20016 nM [1]: 0.2402 and 0.253
DC50 ([3]; read-out: Cellular assays DC50; Supplementary Table 2; HEK293T cycK-eGFP reporter, 5 h): > 10 µM
Structure (SMILES): CCc1cnn2c(NCc3ccc[n+]([O-])c3)cc(N3CCCC[C@H]3CCO)nc12 [Dinaciclib]
viability assay signal (normalized) ([2]; 5 nM, + MLN4924): 0.8664 and 0.8028
viability assay signal (normalized) ([2]; 5 nM, without MLN4924): 0.9657 and 1.0645
viability assay signal (normalized) ([2]; 10.7 nM, + MLN4924): 0.7659 and 0.6765
viability assay signal (normalized) ([2]; 10.7 nM, without MLN4924): 0.9934 and 0.9758
viability assay signal (normalized) ([2]; 22.9 nM, + MLN4924): 0.3817 and 0.3517
viability assay signal (normalized) ([2]; 22.9 nM, without MLN4924): 0.3511 and 0.381
viability assay signal (normalized) ([2]; 48.9 nM, + MLN4924): 0.2784 and 0.2759
viability assay signal (normalized) ([2]; 48.9 nM, without MLN4924): 0.2851 and 0.2898
viability assay signal (normalized) ([2]; 105 nM, + MLN4924): 0.2848 and 0.2647
viability assay signal (normalized) ([2]; 105 nM, without MLN4924): 0.2976 and 0.3085
viability assay signal (normalized) ([2]; 224 nM, + MLN4924): 0.2797 and 0.277
viability assay signal (normalized) ([2]; 224 nM, without MLN4924): 0.291 and 0.2867
viability assay signal (normalized) ([2]; 478 nM, + MLN4924): 0.2746 and 0.2757
viability assay signal (normalized) ([2]; 478 nM, without MLN4924): 0.3016 and 0.2883
viability assay signal (normalized) ([2]; 2190 nM, + MLN4924): 0.2646 and 0.2589
viability assay signal (normalized) ([2]; 2190 nM, without MLN4924): 0.2893 and 0.2745
viability assay signal (normalized) ([2]; 4680 nM, + MLN4924): 0.2516 and 0.2662
viability assay signal (normalized) ([2]; 4680 nM, without MLN4924): 0.2682 and 0.2734
viability assay signal (normalized) ([2]; 10000 nM, + MLN4924): 0.2413 and 0.2482
viability assay signal (normalized) ([2]; 10000 nM, without MLN4924): 0.239 and 0.2604
Toxicity rescue ([2]; Supplementary Table 2): -12%
reporter assay signal (normalized) ([3]; 5 nM; replicates): 0.9772 and 0.948
reporter assay signal (normalized) ([3]; 10.7 nM; replicates): 0.9389 and 0.9407
reporter assay signal (normalized) ([3]; 22.9 nM; replicates): 0.9927 and 0.9745
reporter assay signal (normalized) ([3]; 48.9 nM; replicates): 0.9927 and 0.9772
reporter assay signal (normalized) ([3]; 105 nM; replicates): 0.9863 and 0.9964
reporter assay signal (normalized) ([3]; 224 nM; replicates): 1.014 and 1.0155
reporter assay signal (normalized) ([3]; 478 nM; replicates): 0.99 and 1.01
reporter assay signal (normalized) ([3]; 2190 nM; replicates): 0.9881 and 0.9945
reporter assay signal (normalized) ([3]; 4680 nM; replicates): 1.022 and 0.99
reporter assay signal (normalized) ([3]; 10000 nM; replicates): 1.044 and 1.03
cyclin K reporter degradation, result in words ([3]; HEK293T): non-degrading

TR-FRET signal at compound concentration 4.68 nM [1]: 0.2594 and 0.2805 and 0.1719 and 0.175
TR-FRET signal at compound concentration 21.6 nM [1]: 0.4135 and 0.429 and 0.2939 and 0.3262
TR-FRET signal at compound concentration 36 nM [1]: 0.6079 and 0.623 and 0.4905 and 0.5031
TR-FRET signal at compound concentration 79.2001 nM [1]: 0.8256 and 0.8685 and 0.6858 and 0.596
TR-FRET signal at compound concentration 158.4 nM [1]: 0.9273 and 1.013 and 0.793 and 0.779
TR-FRET signal at compound concentration 309.6 nM [1]: 0.9662 and 1.065 and 0.8707 and 0.8846
TR-FRET signal at compound concentration 626.401 nM [1]: 1.035 and 1.155 and 0.9082 and 0.902
TR-FRET signal at compound concentration 1252.8 nM [1]: 1.099 and 1.27 and 0.978 and 0.9866
TR-FRET signal at compound concentration 2448 nM [1]: 1.138 and 1.2612 and 0.9975 and 0.9532
TR-FRET signal at compound concentration 9936.01 nM [1]: 1.131 and 1.306 and 0.9937 and 0.9375
TR-FRET signal at compound concentration 20016 nM [1]: 1.0554 and 1.222 and 0.9378 and 0.9067
DC50 ([3]; Supplementary Table 2; HEK293T cycK-eGFP reporter, 5 h; read-out: Cellular assays DC50): > 10 µM
Structure (SMILES): CN1CC[C@H](c2c(O)cc(O)c3c(=O)cc(-c4ccccc4Cl)oc23)[C@H](O)C1 [Flavopiridol, reference compound]
EC50 ([2]; Homo sapiens, HEK-293T, Supplementary Table 2, HEK293T viability, 72 h, compound alone, read-out: Cellular assays EC50): 395 nM
Toxicity rescue ([2]; Supplementary Table 2): 1%
